Here are results for three molecules from paper PMC9867442, “Indole Derivatives Bearing Imidazole, Benzothiazole-2-Thione or Benzoxazole-2-Thione Moieties—Synthesis, Structure and Evaluation of Their Cytoprotective, Antioxidant, Antibacterial and Fungicidal Activities” (Molecules, 2023).

A value given as a limit tells only on which side of the number the result lay.

A short description of series [1]: Ferrous ions (Fe2+) chelating activity (ferrozine). The note with it: 0.1 mg/mL, 10 min, room temperature. As to the method:
Ferrous ions (Fe^2+) chelating activity was evaluated by inhibition of the formation of Fe^2+-ferrozine complex after incubation of the compounds tested with Fe^2+. The Fe^2+-chelating ability of compounds tested was determined by the absorbance of the ferrous ion-ferrozine complex at 562 nm. In brief, 0.1 mg/mL concentration of the compounds tested in 0.2 mL ethyl alcohol were added to a solution of 0.6 mM FeCl2 (0.05 mL). EDTA (ethylenediaminetetraacetic acid) was used as the standard EDTA chelating agent. The reaction was started by the addition of 5 mM ferrozine (0.05 mL) in ethyl alcohol and shaken vigorously immediately. The samples were stored for 10 min at room temperature (~22 °C). Following incubation, the absorbance (Abs) of the solutions was measured at 562 nm in a spectrophotometer. The percentage of inhibition of ferrozine—Fe^2+ complex formation was calculated using the equation: Fe^2+ chelating effect (%) = [1 − (Abs1/Abs0)] × 100% where Abs0 is the absorbance of the sample without the tested compound and Abs1 is the absorbance in the presence of the compound tested. Each sample was made in triplicate, and three independent experiments were performed.

For series [2], the system named is Bacillus subtilis. Put plainly: Antibacterial well-diffusion method. In kind it is cell-based. The settings on record: 0.1 mL of compound in DMSO, 48 h, 27 °C. As to the method: (§1) The antimicrobial properties of compounds were determined against selected bacteria: Micrococcus luteus, Bacillus subtilis, Escherichia coli and Pseudomonas fluorescens which came from the collection of Pure Cultures of the Facility of Microbiology of the Department of Soil Science and Microbiology of the Poznan University of Life Sciences. The well-diffusion method was used to evaluate the antimicrobial properties of compounds. 6 mL each of liquidized broth medium was poured into sterile Petri dishes and allowed to solidify. After which, two sterile glass rings with a diameter of 0.5 cm were placed on the surface of each plate. Then 20 mL each of liquid broth medium containing suspensions of the tested bacterial strains at a density of 10^7 cells/cm3, obtained from 48-h cultures on broth […], was introduced. After the medium solidified, the glass rings were removed with a pencil, obtaining two wells on each plate. 0.1 mL of compound dissolved in pure dimethyl sulphoxide was introduced into one well, and 0.1 mL of pure dimethyl sulphoxide was introduced into the other well, which was as a control. Each compound was tested in four replicates. The plates were incubated for 48 h in a thermostat at 27 °C for M. luteus, B. subtilis and P. fluorescens cultures, and the E. coli culture at 37 °C. At the end of the incubation, the diameters of growth inhibition of the tested strains were measured using calipers.

Series [3] has as its system Micrococcus luteus. The series can be described thus: Antibacterial well-diffusion method. The note with it: Micrococus luteus, 0.1 mL of compound in DMSO, 48 h, 27 °C. It is filed as cell-based. The method, then: as §1
On the technique in general: Agar diffusion results depend on both activity and mobility in agar.

The subject of series [4] is Pseudomonas fluorescens. Put plainly: Antibacterial well-diffusion method. The settings on record: 0.1 mL of compound in DMSO, 48 h, 27 °C. In kind it is cell-based. As to the method:
as §1

Series [5] concerns Escherichia coli. Put plainly: Antibacterial well-diffusion method. The settings on record: 0.1 mL of compound in DMSO, 48 h, 37 °C. In kind it is cell-based. The method, then: as §1
Series [6] concerns Coriolus versicolor (Cv). Put plainly: Antifungal agar-plate method. The settings on record: for inhibition of growth at 0.0001 % / inhibition of growth at 0.001 % / inhibition of growth at 0.01 % / inhibition of growth at 0.1 %: Trametes versicolor, read-out: Antifungal activity (inhibition of mycelial growth). It is filed as cell-based. The method, then: (§2) Fungal strains: Coriolus versicolor (Cv), Poria placenta (Pp), Coniophora puteana (Cp) and Gloeophyllum trabeum (Gt) were used as a test organism for the experimental determination of the antifungal activity of 1–11. The fungus were obtained from the collection of the Department of Wood Chemical Technology, Faculty of Forestry and Wood Technology, Poznań, University of Life Sciences, Poland. The fungal growth rates were measured in 90 mm-diameter plastic dishes using the agar-plate method, described by Ważny and Thorton. Five concentrations of gramine and its derivatives in the range of 0.1% to 0.00001% were studied. The compound was applied on the agar (2% agar and 5% malt-extract) prepared on the Petri dish and previously autoclaved. The combination of the compound and fungus was repeated three times. Given sample was centrally inoculated with a 5 mm diameter disc taken from the submargin of 5-day-old malt agar plates. The plates were incubated in darkness at 21 ± 2 °C and 70 ± 5% relative air humidity. The growth duration was determined by the total coverage of the reference plate. The radius of the area covered by the fungus compared with the reference agar plate was employed to calculate the effective doses, ED50, of preservative concentrations retarding the fungal growth rate by 50%.

Series [7] has as its system Coniophora puteana (Cp). The series can be described thus: Antifungal agar-plate method. In kind it is cell-based. As to the method:
as §2

Series [8] deals with Poria placenta (Pp). Put plainly: Antifungal agar-plate method. In kind it is cell-based. As to the method:
as §2

Series [9] concerns Gloeophyllum trabeum (Gt). Put plainly: Antifungal agar-plate method. In kind it is cell-based. The settings on record: for inhibition of growth at 0.0001 % / inhibition of growth at 0.001 % / inhibition of growth at 0.01 % / inhibition of growth at 0.1 %: Gloeophyllum trabeum, read-out: Antifungal activity (inhibition of mycelial growth). The method, then:
as §2

Where [10] appears, read: Coniophora puteana, concentration 0.0001%, read-out: Antifungal activity (inhibition of mycelial growth).
Where [11] appears, read: Coniophora puteana, concentration 0.001%, read-out: Antifungal activity (inhibition of mycelial growth).
The mark [12] stands for this setting: Coniophora puteana, concentration 0.01%, read-out: Antifungal activity (inhibition of mycelial growth).
Where [13] appears, read: concentration 0.0001%, read-out: Antifungal activity (inhibition of mycelial growth).
The mark [14] stands for this setting: concentration 0.001%, read-out: Antifungal activity (inhibition of mycelial growth).
Setting [15] is: concentration 0.01%, read-out: Antifungal activity (inhibition of mycelial growth).

The inhibition of growth is the drop in the measured response relative to a control, in per cent. In general, melting point refers to the temperature of the solid-liquid transition.

The molecule “3-((2-phenyl-2,5-dihydro-1H-imidazol-1-yl)methyl)-1H-indole [Compound 8]” registered a Chelating activity in series [1] of 40%. Besides, the “Zone of Growth Inhibition” value amounted to 3.7 mm in series [2], 8.6 mm in [3], 0 mm in [4] and 5 mm in [5]. The “Antifungal activity (inhibition of mycelial growth)” value was determined as 7% in series [6] (concentration 0.0001%); 13% in series [6] (concentration 0.001%); 41% in series [6] (concentration 0.01%); 100% in series [6] (concentration 0.1%); 0% in series [7] (concentration 0.0001%); 0% in [7] (concentration 0.001%). In addition, the “Antifungal activity (inhibition of mycelial growth)” value in series [7] (concentration 0.01%) was found to be 48%; in series [7] (concentration 0.1%), 100%; in series [8] (concentration 0.0001%), 0%; in series [8] (concentration 0.001%) it was 17%; in series [8] (concentration 0.01%), 45%; in [8] (concentration 0.1%) it was 100%. For the same molecule, the “Antifungal activity (inhibition of mycelial growth)” value in [9] (concentration 0.0001%) is 13%; in [9] (concentration 0.001%) it was 18%; in [9] (concentration 0.01%) it was 53%; in series [9] (concentration 0.1%), 100%.
As for `Clc1ncn(Cc2c[nH]c3ccccc23)c1Cl` [Compound 7, 3-((4,5-dichloro-1H-imidazol-1-yl)methyl)-1H-indole], the Chelating activity result in [1] is on record as “no chelating activity”. The “Zone of Growth Inhibition” value is 8.7 mm in series [2], 5 mm in series [3], 0 mm in [4] and 4.3 mm in series [5]. Besides, the inhibition of growth at 0.0001 % was 0% in series [6] (concentration 0.0001%), 0% in series [7] (setting [10]), 0% in series [8] (setting [13]) and 28% in [9] (concentration 0.0001%). Besides, the inhibition of growth at 0.001 % in series [6] (concentration 0.001%) turned out to be 23%; in series [7] (setting [11]) it was 46%; in series [8] (setting [14]), 35%; in [9] (concentration 0.001%) it was 51%. In addition, the inhibition of growth at 0.01 % came to 96% in series [6] (concentration 0.01%), 74% in series [7] (setting [12]), 78% in series [8] (setting [15]) and 91% in series [9] (concentration 0.01%). For the same molecule, the inhibition of growth at 0.1 % in series [6] (concentration 0.1%) and in [9] (concentration 0.1%) was > 90% each time.
The molecule `S=c1sc2ccccc2n1Cc1c[nH]c2ccccc12` [Compound 10, 3-((1H-indol-3-yl)methyl)benzo[d]thiazole-2(3H)-thione] gave a melting point of 187 to 190 °C. Besides, the Chelating activity in series [1] stood at 12%. Also, the “Zone of Growth Inhibition” value in series [2] was determined as 0 mm. Besides, the “Zone of Growth Inhibition” value in series [3] is listed as 2.6 mm. The “Zone of Growth Inhibition” value in series [4] is 0 mm. The “Zone of Growth Inhibition” value in [5] was found to be 1 mm. Also, the inhibition of growth at 0.0001 % in series [6] (concentration 0.0001%) was determined as 0%. In series [6] (concentration 0.001%), the inhibition of growth at 0.001 % turned out to be 20%. Also, in [6] (concentration 0.01%), the inhibition of growth at 0.01 % came to 49%. Besides, the inhibition of growth at 0.1 % in [6] (concentration 0.1%) was 100%. Besides, the inhibition of growth at 0.0001 % in series [7] (setting [10]) is 0%. Also, the inhibition of growth at 0.001 % in series [7] (setting [11]) was 40%. Also, in [7] (setting [12]), the inhibition of growth at 0.01 % stood at 57%. Besides, the inhibition of growth at 0.1 % in [7] (Coniophora puteana, concentration 0.1%, read-out: Antifungal activity (inhibition of mycelial growth)) is 100%. Further, in series [8] (setting [13]), the inhibition of growth at 0.0001 % was 34%. Also, the inhibition of growth at 0.001 % in series [8] (setting [14]) worked out at 54%. Moreover, the inhibition of growth at 0.01 % in series [8] (setting [15]) was determined as 71%. In addition, in [8] (concentration 0.1%, read-out: Antifungal activity (inhibition of mycelial growth)), the inhibition of growth at 0.1 % worked out at 100%. Further, the inhibition of growth at 0.0001 % in [9] (concentration 0.0001%) was determined as 0%. Further, in [9] (concentration 0.001%), the inhibition of growth at 0.001 % amounted to 38%. For the same molecule, the inhibition of growth at 0.01 % in series [9] (concentration 0.01%) is 59%. In addition, the inhibition of growth at 0.1 % in [9] (concentration 0.1%) was 100%.
